Reference: patent US6951882B2, “Substituted 4-phenyl-[1,3]-dioxanes” (Janssen Pharmaceutica N.V., priority 2002, dated 2005)

Target: T1, orexin-2 receptor (Homo sapiens, UniProt O43614)
T1 construct: expressed in transfected cells; host or cells: CHO-K1 (preferred) or HEK-293 recombinant clones
T1 sequence (O43614 1-444): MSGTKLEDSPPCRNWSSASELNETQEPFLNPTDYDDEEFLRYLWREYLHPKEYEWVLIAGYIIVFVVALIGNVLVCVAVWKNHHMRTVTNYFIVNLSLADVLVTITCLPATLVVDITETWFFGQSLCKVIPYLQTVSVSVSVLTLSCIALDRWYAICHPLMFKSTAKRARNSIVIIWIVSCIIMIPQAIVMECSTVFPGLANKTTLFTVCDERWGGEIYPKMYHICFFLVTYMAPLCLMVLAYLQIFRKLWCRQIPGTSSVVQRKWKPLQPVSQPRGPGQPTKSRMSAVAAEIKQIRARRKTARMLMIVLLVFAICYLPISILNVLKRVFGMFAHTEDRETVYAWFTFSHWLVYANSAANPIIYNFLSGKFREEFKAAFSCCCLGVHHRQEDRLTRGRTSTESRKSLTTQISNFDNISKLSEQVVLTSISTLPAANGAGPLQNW
Experiment: Orexin radioligand binding assay (125I-orexin A, adherent recombinant cells)
Conditions: 125I-orexin A displacement, recombinant CHO-K1 or HEK-293 cells expressing the orexin receptor
Method: The reaction was quenched with 100 μL of 10% w/v bovine serum albumin, then the products were pre-purified using Waters Maxi-Clean C18 cartridges (Alltech, San Jose, Calif.). The mobile phase for the reverse phase separations (pre-purification and gradient HPLC) was 0.1% TFA, and the eluent was 0.1% TFA in acetonitrile. After removing the acetonitrile from the Maxi-Clean cartridge eluent by lyophilization, the labeled compound was further purified by gradient HPLC using a Vydac (Hesperia, Calif.) analytical C18 HPLC column. A gradient of 2% acetonitrile/min was used and fractions were collected every 0.75 min at a flow rate of 1.5 mL/min.
Radioligand binding assays were performed in opaque, white 96-well tissue culture plates pretreated with poly-D-lysine (Bio-Coat plates, Becton Dickinson, Franklin Lakes, N.J.). Cells expressing the orexin receptor were seeded at 30,000 cells/well in 100 μL/well Ham's F12 with 10% heat inactivated fetal bovine serum, penicillin/streptomycin and 800 mg/L G418. […] In preparation for the binding assay, the cell culture medium was aspirated away, and the cells were gently washed with 100 μL-well binding buffer (Dulbecco's phosphate buffered saline containing 0.1% w/v bovine serum albumin). […] The assay was terminated by aspirating the liquid from the wells, washing the wells with iced binding buffer, aspirating the wells dry, adding 50 μL/well scintillation cocktail (MicroScint 40, Packard Biosciences, Meriden Conn.), and counting the plate(s) in a Packard TopCount scintillation counter. […] Data were analyzed using GraphPad Prizm software to calculate Ki values.

| Structure (SMILES) | Ki [nM] |
| --- | --- |
| CC1(C)OC[C@H](/N=C(\S)Nc2ccccc2Br)[C@H](c2ccccc2)O1 [Example 24, 1-(2-Bromo-phenyl)-3-((4S,5S)-2,2-dimethyl-4-phenyl-[1,3]dioxan-5-yl)-thiourea] | 540 |
| CC1(C)OC[C@H](NC(=O)Oc2ccccc2Cl)[C@H](c2ccccc2)O1 [Example 35, ((4S,5S)-2,2-Dimethyl-4-phenyl-[1,3]dioxan-5-yl)-carbamic acid 2-chloro-phenyl ester] | 2600 |
| CC1(C)OC[C@H](NC(=O)Nc2cccc(Br)c2)[C@H](c2ccccc2)O1 [Example 44, 1-(3-Bromo-phenyl)-3-((4S,5S)-2,2-dimethyl-4-phenyl-[1,3]dioxan-5-yl)-urea] | 3800 |
| CC1(C)OC[C@H](NC(=O)Nc2cc(C(F)(F)F)ccc2Cl)[C@H](c2ccccc2)O1 [Example 17, 1-(2-Chloro-5-trifluoromethyl-phenyl)-3-((4S,5S)-2,2-dimethyl-4-phenyl-[1,3]dioxan-5-yl)-urea] | 120 |
| CC1(C)OC[C@H](NC(=O)Nc2ccccc2-c2cccc(Cl)c2)[C@H](c2ccccc2)O1 [Example 14, 1-(3′-Chloro-biphenyl-2-yl)-3-((4S,5S)-2,2-dimethyl-4-phenyl-[1,3]dioxan-5-yl)-urea] | 63 |
| O=C(Nc1ccccc1Br)N[C@H]1COC2(CCCCC2)O[C@H]1c1ccccc1 [Example 26, 1-(2-Bromo-phenyl)-3-((2S,3S)-2-phenyl-1,5-dioxa-spiro[5.5]undec-3-yl)-urea] | 980 |
| CC1(C)OC[C@H](NC(=O)Nc2ccccc2-c2ccsc2)[C@H](c2ccccc2)O1 [Example 15, 1-((4S,5S)-2,2-Dimethyl-4-phenyl-[1,3]dioxan-5-yl)-3-(2-thiophen-3-yl-phenyl)-urea] | 100 |
| CC1(C)OC[C@H](NC(=O)Nc2ccc(Cl)cc2)[C@H](c2ccccc2)O1 [Example 39, 1-(4-Chloro-phenyl)-3-((4S,5S)-2,2-dimethyl-4-phenyl-[1,3]dioxan-5-yl)-urea] | 300 |
| CC1(C)OC[C@H](NC(=O)Nc2ccccc2-c2cccs2)[C@H](c2ccccc2)O1 [Example 13, 1-((4S,5S)-2,2-Dimethyl-4-phenyl-[1,3]dioxan-5-yl)-3-(2-thiophen-2-yl-phenyl)-urea] | 34 |
| CC1(C)OC[C@H](NC(=O)Nc2ccccc2C(F)(F)F)[C@H](c2ccccc2)O1 [Example 8, 1-((4S,5S)-2,2-Dimethyl-4-phenyl-[1,3]dioxan-5-yl)-3-(2-trifluoromethyl-phenyl)-urea] | 76 |
| CC1(C)OC[C@H](NC(=O)Nc2ccccc2F)[C@H](c2ccccc2)O1 [Example 31, 1-((4S,5S)-2,2-Dimethyl-4-phenyl-[1,3]dioxan-5-yl)-3-(2-fluoro-phenyl)-urea] | 1550 |
| CC1(C)OC[C@H](NC(=O)Nc2ccc(-c3cccnc3)cc2)[C@H](c2ccccc2)O1 [Example 38, 1-((4S,5S)-2,2-Dimethyl-4-phenyl-[1,3]dioxan-5-yl)-3-(4-pyridin-3-yl-phenyl)-urea] | 320 |
| Cc1ccc(/N=C(\NC#N)N[C@H]2COC(C)(C)O[C@H]2c2ccccc2)c(Br)c1 [Example 27, N-(2-Bromo-4-methyl-phenyl)-N′-((4S,5S)-2,2-dimethyl-4-phenyl-[1,3]dioxan-5-yl)-N″-cyanoguanidine] | 1000 |
| CC1(C)OC[C@H](NC(=O)Nc2c(Cl)cccc2Cl)[C@H](c2ccccc2)O1 [Example 43, 1-(2,6-Dichloro-phenyl)-3-((4S,5S)-2,2-dimethyl-4-phenyl-[1,3]dioxan-5-yl)-urea] | 5000 |
| COc1ccccc1NC(=O)N[C@H]1COC(C)(C)O[C@H]1c1ccccc1 [Example 37, 1-((4S,5S)-2,2-Dimethyl-4-phenyl-[1,3]dioxan-5-yl)-3-(2-methoxy-phenyl)-urea] | 6000 |
| CC1(C)OC[C@H](NC(=O)Nc2cc(Cl)ccc2Cl)[C@H](c2ccccc2)O1 [Example 10, 1-(2,5-Dichloro-phenyl)-3-((4S,5S)-2,2-dimethyl-4-phenyl-[1,3]dioxan-5-yl)-urea] | 98 |
| CC1(C)OC[C@H](NC(=O)Nc2ccccc2-c2cccnc2)[C@H](c2ccccc2)O1 [Example 23, 1-((4S,5S)-2,2-Dimethyl-4-phenyl-[1,3]dioxan-5-yl)-3-(2-pyridin-3-yl-phenyl)-urea] | 320 |
| CC1(C)OC[C@H](NC(=O)Nc2ccccc2Cl)[C@H](c2ccccc2)O1 [Example 30, 1-(2-Chloro-phenyl)-3-((4S,5S)-2,2-dimethyl-4-phenyl-[1,3]dioxan-5-yl)-urea] | 300 |

| Structure (SMILES) | Ki [nM] |
| --- | --- |
| Cc1ccccc1NC(=O)N[C@H]1COC(C)(C)O[C@H]1c1ccccc1 [Example 32, 1-((4S,5S)-2,2-Dimethyl-4-phenyl-[1,3]dioxan-5-yl)-3-o-tolyl-urea] | 650 |
| Cc1ccc(Cl)c(NC(=O)N[C@H]2COC(C)(C)O[C@H]2c2ccccc2)c1 [Example 3, 1-(2-Chloro-5-methyl-phenyl)-3-((4S,5S)-2,2-dimethyl-4-phenyl-[1,3]dioxan-5-yl)-urea] | 27 |
| Cc1ccc(NC(=O)N[C@H]2COC(C)(C)O[C@H]2c2ccccc2)c(C)c1 [Example 29, 1-(2,4-Dimethyl-phenyl)-3-((4S,5S)-2,2-dimethyl-4-phenyl-[1,3]dioxan-5-yl)-urea] | 200 |
| Cc1ccc(C)c(NC(=O)N[C@H]2COC(C)(C)O[C@H]2c2ccccc2)c1 [Example 11, 1-(2,5-Dimethyl-phenyl)-3-((4S,5S)-2,2-dimethyl-4-phenyl-[1,3]dioxan-5-yl)-urea] | 64 |
| CC1(C)OC[C@H](NC(=O)Nc2cccc(Cl)c2)[C@H](c2ccccc2)O1 [Example 46, 1-(3-Chloro-phenyl)-3-((4S,5S)-2,2-dimethyl-4-phenyl-[1,3]dioxan-5-yl)-urea] | 2000 |
| CC1(C)OC[C@H](NC(=O)Nc2ccccc2[N+](=O)[O-])[C@H](c2ccccc2)O1 [Example 33, 1-((4S,5S)-2,2-Dimethyl-4-phenyl-[1,3]dioxan-5-yl)-3-(2-nitro-phenyl)-urea] | 580 |
| CC(C)c1ccccc1NC(=O)N[C@H]1COC(C)(C)O[C@H]1c1ccccc1 [Example 42, 1-((4S,5S)-2,2-Dimethyl-4-phenyl-[1,3]dioxan-5-yl)-3-(2-isopropyl-phenyl)-urea] | 2900 |
| CC1(C)OC[C@H](NC(=O)Nc2ccccc2C(=O)O)[C@H](c2ccccc2)O1 [Example 41, 2-[3-((4S,5S)-2,2-Dimethyl-4-phenyl-[1,3]dioxan-5-yl)-ureido]-benzoic acid] | 710 |
| CC1(C)OC[C@H](NC(=O)Nc2ccc(I)cc2)[C@H](c2ccccc2)O1 [Example 7, 1-((4S,5S)-2,2-Dimethyl-4-phenyl-[1,3]dioxan-5-yl)-3-(4-iodo-phenyl)-urea] | 45 |
| CC1(C)OC[C@H](NC(=O)Nc2ccccc2I)[C@H](c2ccccc2)O1 [Example 6, 1-((4S,5S)-2,2-Dimethyl-4-phenyl-[1,3]dioxan-5-yl)-3-(2-iodo-phenyl)-urea] | 70 |
| CC1(C)OC[C@H](NC(=O)Nc2ccccc2Oc2ccccc2)[C@H](c2ccccc2)O1 [Example 21, 1-((4S,5S)-2,2-Dimethyl-4-phenyl-[1,3]dioxan-5-yl)-3-(2-phenoxy-phenyl)-urea] | 210 |
| CC1(C)OC[C@H](NC(=O)Cc2ccccc2Br)[C@H](c2ccccc2)O1 [Example 34, 2-(2-Bromo-phenyl)-N-((4S,5S)-2,2-dimethyl-4-phenyl-[1,3]dioxan-5-yl)-acetamide] | 2200 |
| Cc1cc(Br)ccc1NC(=O)N[C@H]1COC(C)(C)O[C@H]1c1ccccc1 [Example 2, 1-(4-Bromo-2-methyl-phenyl)-3-((4S,5S)-2,2-dimethyl-4-phenyl-[1,3]dioxan-5-yl)-urea] | 50 |
| Cc1cc(NC(=O)N[C@H]2COC(C)(C)O[C@H]2c2ccccc2)ccc1Br [Example 9, 1-(4-Bromo-3-methyl-phenyl)-3-((4S,5S)-2,2-dimethyl-4-phenyl-[1,3]dioxan-5-yl)-urea] | 87 |
| COC(=O)c1ccccc1NC(=O)N[C@H]1COC(C)(C)O[C@H]1c1ccccc1 [Example 40, 2-[3-((4S,5S)-2,2-Dimethyl-4-phenyl-[1,3]dioxan-5-yl)-ureido]-benzoic acid methyl ester] | 1200 |
| CC1(C)OC[C@H](NC(=O)Nc2ccccc2C#N)[C@H](c2ccccc2)O1 [Example 20, 1-(2-Cyano-phenyl)-3-((4S,5S)-2,2-dimethyl-4-phenyl-[1,3]dioxan-5-yl)-urea] | 60 |
| O=C(Nc1ccc(Br)cc1Br)N[C@H]1COC2(CCCCC2)O[C@H]1c1ccccc1 [Example 25, 1-(2,4-Dibromo-phenyl)-3-((2S,3S)-2-phenyl-1,5-dioxa-spiro[5.5]undec-3-yl)-urea] | 700 |
